Measurements as given in PubChem BioAssay AID489021 (Sanford-Burnham Center for Chemical Genomics, 2010).
Activity calls are given as the source filed them. No rule for the calls is given here.

Test system: HEK-293T cytotoxicity, luminescence
Test: HEK-293T cell viability reduction – luminescence, B-cell screen hits, cytotoxicity control for BCR NF-kB inhibitor project, dose response (AID 489021)

`COc1ccc(/C=C\C(=O)O[C@@H]2C(O)C(O[C@@H]3OC(C)[C@H](O[C@@H]4OCC(O[C@H]5O[C@H](CO)[C@@H](O)C(O)C5O)C(O)C4O)C(O)C3O)[C@H](OC(=O)[C@]34CCC(C)(C)C[C@@H]3C3=CCC5[C@@]6(C)CC(O)C(O[C@@H]7OC(CO)C(O)[C@H](O)[C@H]7O)[C@@](C)(C(=O)O)C6CC[C@@]5(C)[C@]3(CO)CC4)O[C@H]2C)cc1` (stereo partly specified) was tested, and the IC50 was 60.7 µM (inactive).
